Where “and” joins values, the source holds several entries; their conditions need not be identical. Equal entries are not always repeated.
Assays:
Or83b receptor = molecular target: T1, Or83b receptor (Drosophila melanogaster, UniProt Q9VNB5); assay: cAMP production in Schneider cells expressing Or83b receptor; assay type: cell-based
T1 construct: His (from vector pAc5.1/V5-His B) (C); expressed in transfected cells
T1 sequence (Q9VNB5 1-486): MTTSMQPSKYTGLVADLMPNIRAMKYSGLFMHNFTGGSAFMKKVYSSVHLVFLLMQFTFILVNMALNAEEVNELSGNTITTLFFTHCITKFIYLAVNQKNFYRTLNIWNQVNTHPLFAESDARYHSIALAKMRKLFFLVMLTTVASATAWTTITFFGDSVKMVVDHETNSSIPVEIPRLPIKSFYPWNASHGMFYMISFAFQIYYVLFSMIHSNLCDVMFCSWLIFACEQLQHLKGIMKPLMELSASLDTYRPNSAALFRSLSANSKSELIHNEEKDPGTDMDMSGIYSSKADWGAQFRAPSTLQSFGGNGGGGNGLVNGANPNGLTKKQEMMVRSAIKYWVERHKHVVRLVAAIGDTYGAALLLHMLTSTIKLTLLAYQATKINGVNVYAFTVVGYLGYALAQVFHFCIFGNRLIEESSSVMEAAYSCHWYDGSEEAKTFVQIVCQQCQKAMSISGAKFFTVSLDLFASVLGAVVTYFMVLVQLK
Experimental: (§1) Cells are grown on dishes and the media changed the day before the treatment. When cells are approximately 95% confluent, media is aspirated and the cells are washed one time with about 5 mL of about 27° C. insect saline (170 mM NaCl, 6.0 mM KCl, 2.0 mM NaHCO3, 17.0 mM glucose, 6.0 mM NaH2PO4, 2.0 mM CaCl2, 4.0 mM MgCl2; pH 7.0). About 20 mL of insect saline is added, and cells are harvested by gentle scraping. An aliquot of the cells is counted by hemocytometer, and the cells are then centrifuged for about 5 minutes at about 1000 RPM. Cells are resuspended to give about 3×10^6 cells per mL. IBMX is added to about 200 μM. Then about 1 mL of cell suspension is aliquoted for treatment. Forskolin (cAMP inducing agent), tyramine or different composition candidates are added, and the cells are incubated at about 27° C. for about 10 minutes.
(§2) Treated cells are centrifuged at about 13000 g for about 10 seconds. The solution is aspirated and about 1 mL of about −20° C. 70% ethanol is added. The cell pellet is disrupted by vortexing and the samples placed at about −20° C. overnight. Following the ethanol extraction, cellular debris is pelleted by centrifugation at about 13000 g for about 5 minutes. The supernatant is transferred to a tube and lyophilized to dryness in a rotary speed-vac. The resulting extract is resuspended in about 100 μL TE and used for the cAMP assay.
The cAMP assay is based on competition binding between endogenous cAMP and ^3H-cAMP to a cAMP binding protein. The ^3H-cAMP Biotrak system (Amersham Biosciences) is used for this assay as per the manufacturer's instructions. Briefly, about 50 μL of the cellular extract is incubated with about 50 μL ^3H-cAMP and about 100 μL cAMP binding protein in an ice bath for about 2-4 hours. Charcoal (about 100 μL) is then added and the solution centrifuged for about 3 minutes at about 4° C. About 200 μL of the reaction mixture is removed and levels of ^3H-cAMP are determined by scintillation counting. Levels of endogenous cAMP from the cells are calculated using a standard curve with cold cAMP ranging from about 0 to 16 pmol per reaction.
To ensure that the cAMP cascade in this cell model is functionally active, forskolin, a cAMP inducer, is used as standard agent. Cyclic-AMP levels are measured using the cAMP assay described above in Example 2. […]
To determine the effect of various plant essential oils on intracellular cAMP production and the tyramine-dependent changes of cAMP in cells expressing one of the olfactory receptors, cells from each cell model are treated with LFO (about 50 μg/ml) and BSO (about 50 μg/ml) in the presence and absence of tyramine (about 20 μM) and forskolin (about 10 μM) and intracellular cAMP is thereafter quantified using the cAMP assay described above in Example 2.

tyramine receptor (TyrR) [1] = molecular target: T2, tyramine receptor (TyrR) (Drosophila melanogaster, UniProt P22270); conditions: displacement of about 2 nM ^3H-tyramine
T2 sequence (P22270 27-601): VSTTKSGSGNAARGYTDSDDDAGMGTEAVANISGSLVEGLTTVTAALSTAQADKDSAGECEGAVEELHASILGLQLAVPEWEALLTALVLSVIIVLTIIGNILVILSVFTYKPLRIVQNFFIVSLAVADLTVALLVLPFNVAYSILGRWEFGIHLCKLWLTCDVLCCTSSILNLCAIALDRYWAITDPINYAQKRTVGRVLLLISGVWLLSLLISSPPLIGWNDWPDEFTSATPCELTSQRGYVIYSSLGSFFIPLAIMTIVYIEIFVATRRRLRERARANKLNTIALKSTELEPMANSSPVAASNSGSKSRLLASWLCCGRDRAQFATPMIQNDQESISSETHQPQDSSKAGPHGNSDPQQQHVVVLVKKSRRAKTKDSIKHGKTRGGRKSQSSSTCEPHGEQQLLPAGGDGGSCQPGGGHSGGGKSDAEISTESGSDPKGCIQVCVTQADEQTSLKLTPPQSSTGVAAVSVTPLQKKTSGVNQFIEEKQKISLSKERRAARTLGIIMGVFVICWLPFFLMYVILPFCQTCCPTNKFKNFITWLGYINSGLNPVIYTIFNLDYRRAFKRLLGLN
Experimental: A preliminary study to determine the optimum concentration of membrane protein for receptor binding activity is performed. […] After about 1 hr incubation at room temperature, reactions are terminated by filtration through GF/C filters (VWR), which have been previously soaked in about 0.3% polyethyleneimine (PEI). The filters are washed one time with about 4 ml ice cold Iris buffer and air dried before the retained radioactivity is measured using LSC. Binding data is analyzed by curve fitting (GraphPad software, Prism).
Receptor binding reactions are incubated for about 1 hr at room temperature (RT) in restricted light. Reactions are terminated by filtration through OF/C filters (VWR), which have been previously soaked in about 0.3% polyethyleneimine (PEI). The filters are washed one time with about 4 ml ice cold Tris buffer and air dried before retained radioactivity is measured using LSC. Binding data is analyzed by curve fitting (GraphPad software, Prism).

tyramine receptor (TyrR) [2] = molecular target: T2, tyramine receptor (TyrR); assay: cAMP levels in Schneider cells expressing tyramine receptor; assay type: cell-based; parameters: oligonucleotides that are used to amplify the open reading frame of the Drosophila tyramine receptor (TyrR); expressed in transfected cells
Experimental: as §1
as §2, with “The resulting extract is resuspended in about 100 μL TE and used for the cAMP assay.” left out
The cAMP assay is based on competition binding between endogenous cAMP and ^3H-cAMP to a cAMP binding protein. […] About 200 μL of the reaction mixture is removed and levels of ^3H-cAMP are determined by scintillation counting. Levels of endogenous cAMP from the cells are calculated using a standard curve with cold cAMP ranging from about 0 to 16 pmol per reaction.
To examine test chemical-dependent coupling of the tyramine receptor, pAcB-TyrR is stably expressed in Schneider cells. Transfected and untransfected cells are treated with tyramine (about 10 μM), LFO (about 25 μg/ml) and BSO (about 25 μg/ml) in the presence and absence of forskolin (FK) (about 10 μM). cAMP production is measured using the ^3H-cAMP assay kit (Amersham) as described above.

SMILES: NCCc1ccc(O)cc1 [tyramine]
- increase of cAMP production beyond the effect of forskolin by itself (Or83b receptor; forskolin-pretreated cells (about 10 μM)): 10-13%
- increase in cAMP production (Or83b receptor; tyramine about 20 μM, LFO and BSO about 50 μg/ml): approximately 34%
- EC50 (tyramine receptor (TyrR) [1]; EC50 (concentration at which binding is inhibited by 50%)): ~305 nM and 305 nM
- Ki (tyramine receptor (TyrR) [1]; Ki): ~127 nM and 127 nM
- effect on cAMP in the presence of forskolin (tyramine receptor (TyrR) [2]; forskolin about 10 μM): significantly antagonizes forskolin-stimulated cAMP levels
- decrease in cAMP level (tyramine receptor (TyrR) [2]; tyramine about 10 μM, LFO and BSO about 25 μg/ml, without forskolin): about 10%

From patent US20080075796A1, “Compositions and Methods for Controlling Insects” (TyraTech, Inc., priority 2003, published 2008)
